These results are taken from PubChem BioAssay (NCI).

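Assay format: 96-well plates, 48-hour exposure. GI50 is the concentration that inhibits growth by half. The concentration for full growth arrest is given as TGI.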 A value given as a limit tells only on which side of the number the result lay.

Test systems include SK-MEL-5 melanoma; NCI-H23 lung; MCF7 breast; HCT-116 colon; SK-MEL-2 melanoma; TK-10 renal; SK-MEL-28 melanoma; MDA-MB-435; IGROV1 ovarian; ACHN renal.
What all share (assay): NCI-60 cell line screen, 48 h

Regarding `COc1cc2c3c(n(CCCBr)c(=O)c2cc1OC)-c1ccc(NC(C)=O)cc1C3=O`, the GI50 was 2.45 µM in the test with SK-MEL-5 melanoma; 11.8 µM in the test on NCI-H23 lung; 1.82 µM with MCF7 breast; 2.58 µM in the test with HCT-116 colon; 41.4 µM with SK-MEL-2 melanoma; 19.7 µM in the test with TK-10 renal. The GI50 in the test with SK-MEL-28 melanoma was 40.5 µM; in the test on MDA-MB-435, 13.9 µM; in the test on IGROV1 ovarian, 10.8 µM; in the test on ACHN renal, 3.07 µM. The TGI in the test on SK-MEL-5 melanoma was 13.7 µM; in the test on NCI-H23 lung, 46.4 µM; in the test with MCF7 breast it was greater than 100 µM; in the test with HCT-116 colon it was 18.1 µM; in the test with SK-MEL-2 melanoma, greater than 100 µM; with TK-10 renal, greater than 100 µM. For the same compound, the TGI in the test on SK-MEL-28 melanoma is greater than 100 µM; in the test on MDA-MB-435, 78.3 µM; in the test on IGROV1 ovarian, greater than 100 µM; with ACHN renal, greater than 100 µM.
With `O=C(O)c1cc(N=Nc2ccc([As](=O)(O)O)cc2)ccc1O`, the TGI with SK-MEL-5 melanoma, in the test with NCI-H23 lung, with MCF7 breast, in the test with HCT-116 colon, in the test with SK-MEL-2 melanoma and in the test on TK-10 renal was greater than 100 µM each time. For the same compound, the TGI in the test with SK-MEL-28 melanoma, in the test with MDA-MB-435, with IGROV1 ovarian and in the test with ACHN renal was greater than 100 µM throughout.
Regarding `CCCNC(=S)N/N=C(\C)c1ccccn1`, the GI50 in the test with SK-MEL-5 melanoma was 0.213 µM; in the test with NCI-H23 lung, 0.022 µM; in the test with MCF7 breast, less than 0.01 µM; in the test on HCT-116 colon, less than 0.01 µM; in the test on SK-MEL-2 melanoma, 3.58 µM; in the test on TK-10 renal, 0.71 µM. For the same compound, the GI50 is 1.98 µM in the test with SK-MEL-28 melanoma, 0.53 µM with MDA-MB-435, less than 0.01 µM in the test with IGROV1 ovarian and 0.0394 µM with ACHN renal. For the same compound, the TGI is 2.55 µM in the test with SK-MEL-5 melanoma; greater than 100 µM in the test on NCI-H23 lung; greater than 100 µM with HCT-116 colon; greater than 100 µM with SK-MEL-2 melanoma; greater than 100 µM in the test with TK-10 renal; greater than 100 µM in the test on SK-MEL-28 melanoma. The TGI in the test on MDA-MB-435, in the test on IGROV1 ovarian and in the test on ACHN renal was greater than 100 µM throughout.
On to `CC(C)(C)OC(=O)N(CCCN(CCn1c2c(c3ccccc3c1=O)C(=O)c1ccccc1-2)C(=O)OC(C)(C)C)CCn1c2c(c3ccccc3c1=O)C(=O)c1ccccc1-2`, for which the GI50 is greater than 50 µM with SK-MEL-5 melanoma; greater than 50 µM in the test with NCI-H23 lung; greater than 50 µM in the test on MCF7 breast; 22.7 µM in the test with HCT-116 colon; greater than 50 µM in the test on SK-MEL-2 melanoma; greater than 50 µM in the test on TK-10 renal. Moreover, the GI50 in the test with SK-MEL-28 melanoma was greater than 50 µM; with MDA-MB-435, greater than 50 µM; in the test with IGROV1 ovarian, 34.5 µM; with ACHN renal it was 14.5 µM. In addition, the TGI in the test on SK-MEL-5 melanoma, in the test on NCI-H23 lung, with MCF7 breast, in the test with HCT-116 colon, with SK-MEL-2 melanoma and in the test with TK-10 renal was greater than 50 µM in each case. Further, the TGI with SK-MEL-28 melanoma, with MDA-MB-435, in the test with IGROV1 ovarian and in the test with ACHN renal was greater than 50 µM throughout.
On to `Cn1cc(-c2csc(-c3cccc(F)c3)n2)c2cccnc21`, for which the GI50 was 15.7 µM in the test on SK-MEL-5 melanoma; 17.3 µM in the test on NCI-H23 lung; 17.9 µM in the test with MCF7 breast; 14.2 µM in the test on HCT-116 colon; 23.5 µM with SK-MEL-2 melanoma; 17.9 µM in the test on TK-10 renal. Also, the GI50 with SK-MEL-28 melanoma was 17.6 µM; in the test with MDA-MB-435, 14.4 µM; in the test with IGROV1 ovarian, 21.2 µM; with ACHN renal it was 18.2 µM. Moreover, the TGI in the test with SK-MEL-5 melanoma amounted to 30.4 µM; with NCI-H23 lung, 36 µM; in the test with MCF7 breast it was 43.4 µM; with HCT-116 colon it was 27.3 µM; in the test with SK-MEL-2 melanoma, 55.2 µM; with TK-10 renal, 38.1 µM. Moreover, the TGI worked out at 32.8 µM in the test with SK-MEL-28 melanoma, 33.1 µM in the test with MDA-MB-435, 47.5 µM in the test on IGROV1 ovarian and 50.7 µM with ACHN renal.
Turning to `COC(=O)[C@]12CCC(C)(C)C[C@H]1C1=CC[C@@H]3[C@@]4(C)C/C(=C/c5cccnc5)C(=O)C(C)(C)[C@@H]4CC[C@@]3(C)[C@]1(C)CC2`, the GI50 in the test with SK-MEL-5 melanoma is 5.58 µM; in the test on NCI-H23 lung it was 8.05 µM; in the test on MCF7 breast, 3 µM; in the test with HCT-116 colon it was 2.71 µM; in the test with SK-MEL-2 melanoma it was 11.6 µM; in the test on TK-10 renal, 21.4 µM. For the same compound, the GI50 was 6.89 µM with SK-MEL-28 melanoma, 5.05 µM with MDA-MB-435, 5.2 µM in the test with IGROV1 ovarian and 8.05 µM in the test on ACHN renal. For the same compound, the TGI with SK-MEL-5 melanoma stood at 17.9 µM; in the test on NCI-H23 lung, 29.8 µM; in the test on MCF7 breast, 14.7 µM; in the test with HCT-116 colon, 12.1 µM; in the test on SK-MEL-2 melanoma, 32.1 µM; in the test with TK-10 renal, 55.5 µM. Besides, the TGI with SK-MEL-28 melanoma is 20 µM; with MDA-MB-435, 20 µM; in the test on IGROV1 ovarian it was 31.5 µM; in the test on ACHN renal, 24.5 µM.
Regarding `COc1cc([C@@H]2c3cc4c(cc3C(O[C@@H]3O[C@@H]5CO[C@@H](c6cccs6)OC5[C@H](O)[C@H]3O)C3COC(=O)[C@@H]32)OCO4)cc(OC)c1O` (some centres undefined), the GI50 is 0.0567 µM in the test with SK-MEL-5 melanoma; 0.0288 µM in the test on NCI-H23 lung; 0.00975 µM in the test with MCF7 breast; 0.0721 µM with HCT-116 colon; 0.207 µM with SK-MEL-2 melanoma; 0.118 µM with TK-10 renal. The GI50 with SK-MEL-28 melanoma is 0.171 µM; in the test with MDA-MB-435 it was 0.261 µM; in the test with IGROV1 ovarian it was 0.228 µM; with ACHN renal, 0.0269 µM. The TGI with SK-MEL-5 melanoma was 0.573 µM; with NCI-H23 lung, 0.482 µM; with MCF7 breast it was 16.5 µM; with HCT-116 colon, 1.28 µM; with SK-MEL-2 melanoma, 0.87 µM; in the test on TK-10 renal it was 0.799 µM. For the same compound, the TGI was found to be 0.953 µM in the test with SK-MEL-28 melanoma, 2.12 µM in the test on MDA-MB-435, 5.13 µM in the test with IGROV1 ovarian and 0.711 µM with ACHN renal.
